# Assay results published in ChEMBL document CHEMBL1201862, “PubChem BioAssay data set” (2004).
# Calls of active or inactive are those of the source.
# Tests used:
# [1] = growth suppression of beta-catenin-knockout colon cells, dose response, cell-based, HCT116, human colon tumor (AID 1045); format: functional;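 note: HCT116 colon tumor cells with beta catenin knocked out; cells exposed to compound for 60 hours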
# [2] = growth suppression of PTEN-null colon cells, dose response, cell-based, HCT116 PTEN knockout (AID 1047); format: functional;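 note: HCT116 colon tumor cells with PTEN knocked out; cells exposed to compound for 60 hours before readout; potency for loss of cell viability measured by luminescence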
# [3] = cytotoxicity toward NIH3T3 fibroblasts, dose response, counter-screen, cell-based, ATP luminescence, mouse fibroblasts (AID 2010); format: functional;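 note: cells exposed to compound for about 90 hours before reading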
# [4] = inhibitors of intracellular T. cruzi replication, confirmation, NIH3T3 host cells, beta-gal luminescence (AID 2044); format: functional, cell-based;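 note: intracellular parasites grown in NIH/3T3 mouse fibroblasts as host cells; luminescent beta-galactosidase reporter signal from transgenic T. cruzi replicating inside host cells; inhibitors lower the luminescence signal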
# INS1 = experiment: beta cell apoptosis inhibitors, cytokine rescue, dose response, luminescence, retest (AID 449756); format: functional, cell-based; conditions: Rattus norvegicus;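 note: cell death triggered by IL-1 beta plus TNF-alpha plus IFN-gamma mixture; protective hits raise ATP signal compared with cytokine alone wells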
# Cytochrome P450 2C19 = Cytochrome P450 2C19 (Homo sapiens, UniProt P33261); experiment: Cytochrome panel assay with activity outcomes. Panel member name: p450-cyp2c19 Compounds with AC50 equal or less than 10 uM are considered active; format: functional
# Sequence of Cytochrome P450 2C19 (P33261 whole entry): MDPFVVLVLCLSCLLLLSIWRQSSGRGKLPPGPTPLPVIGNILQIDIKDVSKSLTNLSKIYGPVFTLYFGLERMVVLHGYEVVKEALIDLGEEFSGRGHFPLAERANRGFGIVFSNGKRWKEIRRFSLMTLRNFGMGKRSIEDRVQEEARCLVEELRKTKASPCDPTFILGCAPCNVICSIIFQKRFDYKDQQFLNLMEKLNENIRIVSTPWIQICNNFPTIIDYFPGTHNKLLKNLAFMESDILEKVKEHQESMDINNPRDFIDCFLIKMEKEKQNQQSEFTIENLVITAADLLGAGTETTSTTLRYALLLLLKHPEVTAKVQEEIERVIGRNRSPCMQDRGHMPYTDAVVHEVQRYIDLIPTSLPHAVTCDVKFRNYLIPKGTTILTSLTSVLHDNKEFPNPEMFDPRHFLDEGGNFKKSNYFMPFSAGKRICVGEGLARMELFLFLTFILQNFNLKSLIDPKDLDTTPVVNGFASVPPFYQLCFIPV
# [5] = HEp-2 cell cytotoxicity, dose response, cytotoxicity control for RSV inhibitor project, HTS (AID 2410); format: functional; conditions: human respiratory syncytial virus
# [6] = Luminescence Cell-Based Dose Response HTS to Identify Inhibitors of 5'UTR Stem-Loop Driven Prion Protein mRNA Translation in H4 Neuroglioblastoma Cells. [Related pubchem assays: 1827 (Project Summary), 1813 (Primary HTS)]; format: functional
# [7] = inhibitors of SNCA 5'UTR-driven reporter translation, confirmation, H4 neuroglioma cells, luminescence (AID 1988); format: functional, cell-based
# [8] = inhibitors of firefly luciferase expression or activity, dose response, H4 neuroglioma cells, luminescence (AID 1990); format: functional, cell-based
# Cytochrome P450 1A2 = target: T1, Cytochrome P450 1A2 (Homo sapiens, UniProt P05177);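 note: PubChem cytochrome P450 panel assay, CYP1A2 panel member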
# T1 sequence (P05177 whole entry): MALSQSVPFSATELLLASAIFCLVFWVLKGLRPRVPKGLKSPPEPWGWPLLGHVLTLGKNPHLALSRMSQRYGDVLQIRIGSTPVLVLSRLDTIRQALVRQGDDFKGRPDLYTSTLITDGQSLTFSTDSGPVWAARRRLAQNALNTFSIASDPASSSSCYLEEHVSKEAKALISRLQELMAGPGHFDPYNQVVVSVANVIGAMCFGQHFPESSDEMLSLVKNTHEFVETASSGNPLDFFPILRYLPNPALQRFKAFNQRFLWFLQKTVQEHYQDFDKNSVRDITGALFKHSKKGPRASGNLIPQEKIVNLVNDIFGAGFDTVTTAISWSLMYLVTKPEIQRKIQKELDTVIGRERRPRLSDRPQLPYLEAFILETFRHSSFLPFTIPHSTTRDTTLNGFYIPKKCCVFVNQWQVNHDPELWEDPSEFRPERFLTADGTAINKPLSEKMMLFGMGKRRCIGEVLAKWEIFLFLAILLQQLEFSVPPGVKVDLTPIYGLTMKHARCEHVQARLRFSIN
smiles,measurement,setting,value
Cc1sc2nc(CN3CCC(C)CC3)nc(Cl)c2c1C,EC50,[1],14.5 µM (active)
same,EC50,[2],18.5 µM (active)
Cc1ccc(-c2nnc(N3CCCCCC3)c3ccccc23)cc1,EC50,[3],> 60 µM (not active)
same,EC50,[4],1.19 µM (active)
Cc1ccc(C2CC(c3cccc(C)c3)n3nc(N)nc3N2)cc1 (centres undefined),AC50,INS1,> 260 µM (inactive)
CN(C)c1ncc2nc(-c3ccccc3)c(=O)n(C)c2n1,AC50,Cytochrome P450 2C19; read-out: AC50,39.8 µM (inconclusive)
Cc1ccc(N2CCN(C(=O)c3nn(C)c4c3CS(=O)(=O)c3ccccc3-4)CC2)c(C)c1,CC50,[5],10.3 µM (active)
CCC(C)c1ccc(-c2cc(C(=O)OCC(=O)Nc3cc(C)on3)c3ccccc3n2)cc1 (centres undefined),CC50,[5],43.8 µM (active)
COc1ccccc1N1CCN(S(=O)(=O)CCNC(=O)C2CC(=O)N(c3ccccc3)C2)CC1 (centres undefined),EC50,[6],> 120 µM (not active)
same,EC50,[7],114 µM (active)
same,EC50,[8],> 120 µM (not active)
Cc1nc2ccccc2c(=O)n1-c1cc([N+](=O)[O-])cc([N+](=O)[O-])c1,EC50,[3],> 60 µM (not active)
same,EC50,[4],1.98 µM (active)
COC(=O)C1CCC(C)(C(=O)Nc2ccccc2)C1(C)C (centres undefined),AC50,Cytochrome P450 1A2,15.8 µM (inconclusive)
CN(C)CCN(C(=O)c1ccc(S(=O)(=O)N(C)c2ccccc2)cc1)c1nc2ccc(Cl)cc2s1,EC50,[3],> 15 µM (not active)
same,EC50,[4],0.117 µM (active)
CC(=O)N1CCc2cc(S(=O)(=O)NCCC3=CCCCC3)ccc21,AC50,INS1,4.54 µM (active)
Cc1ccccc1C(=O)NC(=S)Nc1sc2c(c1C#N)CCCC2,CC50,[5],25.9 µM (active)
O=C(/C=C/c1ccccc1)NC(NC(=S)Nc1ccc(Cl)cc1Cl)C(Cl)(Cl)Cl (centres undefined),EC50,[3],> 60 µM (not active)
same,EC50,[4],2.02 µM (active)
CSCc1cc(N2CCOCC2)nc(SCc2ccc(Cl)c(Cl)c2)n1,CC50,[5],26.1 µM (active)
COc1ccc(-c2cc(C(F)F)n3ncc(C(=O)N4CCCCC4)c3n2)cc1,EC50,[3],> 60 µM (not active)
same,CC50,[5],> 50 µM (active)
same,EC50,[4],1.25 µM (active)
CCOC(=O)C1(CCOc2ccccc2)CCN(Cc2ccc3nonc3c2)CC1,EC50,[3],> 60 µM (not active)
same,EC50,[4],2.61 µM (active)
CCC(C)Sc1nc2c(c(=O)[nH]c(=O)n2C)n1C (centres undefined),CC50,[5],20.8 µM (active)
Cc1ccc(Cn2nnc3c(O)nc(C4CCN(S(=O)(=O)Cc5ccccc5)CC4)nc32)cc1,CC50,[5],26.8 µM (active)
CN1C/C(=C/c2ccsc2)C(=O)/C(=C/c2ccsc2)C1,EC50,[3],> 30 µM (not active)
same,EC50,[4],0.156 µM (active)
COc1ccc(-c2csc3ncnc(N4CCN(S(=O)(=O)c5ccc(C)c(C)c5)CC4)c23)cc1,EC50,[3],24.1 µM (active)
same,EC50,[4],2.05 µM (active)
CCCc1cc(NCCCCO)n2c(nc3ccccc32)c1C#N,EC50,[6],> 120 µM (not active)
same,EC50,[7],> 120 µM (not active)
same,EC50,[8],25.6 µM (active)
Cc1cc(Cl)ccc1OCCCC(=O)NC1CCN(C)CC1,EC50,[3],> 60 µM (not active)
same,EC50,[4],0.164 µM (active)
Nc1ccccc1C(=O)Nc1ccc(Cl)cc1Cl,CC50,[5],35.7 µM (active)
COc1ccc(C2=NN(C(=O)COc3ncnc4ccccc34)C(c3ccco3)C2)cc1 (centres undefined),EC50,[6],> 120 µM (not active)
same,EC50,[7],> 60 µM (not active)
same,EC50,[8],13.8 µM (active)
CCCOc1ccc([N+](=O)[O-])cc1C1NC(S)=NC(c2ccccc2)=C1C(=O)OCC (centres undefined),CC50,[5],40.5 µM (active)
COc1ccc(NC(=O)/C(C#N)=C/c2cc(C)n(-c3ccc(N4CCOCC4)c([N+](=O)[O-])c3)c2C)cc1,EC50,[6],35.2 µM (active)
same,EC50,[7],> 120 µM (not active)
same,EC50,[8],> 120 µM (not active)
COc1ccccc1Cn1nnc2c(O)nc(C3CCN(C(=O)c4ccccc4Cl)CC3)nc21,EC50,[6],> 120 µM (not active)
same,EC50,[7],68.6 µM (active)
same,EC50,[8],> 120 µM (not active)
COc1ccccc1NS(=O)(=O)c1cccc(NC(=O)c2sc3ccccc3c2Cl)c1,EC50,[3],> 60 µM (not active)
same,EC50,[4],1.19 µM (active)
CCc1ccc(N(C(=O)c2csnn2)C(C(=O)NC(C)(C)C)c2ccncc2)cc1 (centres undefined),AC50,Cytochrome P450 2C19; read-out: AC50,2.82 µM (inconclusive)
CC(=O)N(C(C)=O)c1[nH]cc2c3ccccc3nc-2c1C#N,EC50,[6],12.9 µM (active)
same,EC50,[7],15.7 µM (active)
same,EC50,[8],9.63 µM (active)
CCCN1CCC(=NNc2ccc(S(=O)(=O)N(CC)CC)cc2[N+](=O)[O-])CC1,EC50,[6],> 120 µM (not active)
same,EC50,[7],8.05 µM (active)
same,EC50,[8],16.5 µM (active)
Cc1ccn2cc(-c3cccc(S(=O)(=O)N4CC(C)OC(C)C4)c3)nc2c1 (centres undefined),CC50,[5],> 50 µM (active)
COC(=O)[C@@]1(Cc2ccccc2)[C@H]2c3cc(C(=O)N4CCCC4)[nH]c3C[C@H]2CN1C(=O)c1ccccc1,AC50,Cytochrome P450 1A2,1.26 µM (inconclusive)
CCOC(=O)c1cccc(-c2c(-c3ccccc3)ncc3cc(OC)c(OC)cc23)c1,CC50,[5],20.4 µM (active)
CCCCN1CC(=O)C(c2nc(-c3ccc(Cl)cc3)cs2)=C1N,EC50,[6],> 120 µM (not active)
same,EC50,[7],> 120 µM (not active)
same,EC50,[8],> 120 µM (not active)
O=C(NCc1ccccc1)c1ccc(C(=O)N(C2CCCCC2)C2CCCCC2)cc1,EC50,[3],> 60 µM (inconclusive)
same,EC50,[4],2.27 µM (active)
CCOC(=O)C1=C(CSc2nc3ccccc3s2)NC(=O)NC1c1cccc([N+](=O)[O-])c1 (centres undefined),AC50,Cytochrome P450 2C19; read-out: AC50,1.58 µM (inconclusive)
CN1CCN(c2ncc3nc(-c4cccc(C#N)c4)c(=O)n(Cc4ccc(F)cc4)c3n2)CC1,AC50,Cytochrome P450 2C19; read-out: AC50,10 µM (inconclusive)
Cn1c(=O)[nH]c(=O)c2c1nc(N1CCCCCC1)n2Cc1cccc2ccccc12,EC50,[6],> 120 µM (not active)
same,EC50,[7],45 µM (active)
same,EC50,[8],24.4 µM (active)
Cc1cc(C(=O)CSc2nc3ccccc3c(=O)n2C)c(C)n1Cc1ccc2c(c1)OCO2,AC50,INS1,1.41 µM (active)
COc1cccc(NC(S)=NN2CCN(C)CC2)c1,AC50,Cytochrome P450 2C19; read-out: AC50,28.2 µM (inconclusive)
CC(C)(C)c1ccc(C(=O)Nc2ccc(S(=O)(=O)Nc3cnc4ccccc4n3)cc2)cc1,CC50,[5],8.3 µM (active)
COC(=O)c1ccc(CSc2ccc3nnc(-c4ccccc4)n3n2)o1,EC50,[6],15.7 µM (active)
same,EC50,[7],16.6 µM (active)
same,EC50,[8],> 120 µM (not active)
Cc1ccc(-c2cc(C(F)F)n3ncc(C(=O)N4CCc5ccccc5C4)c3n2)cc1,EC50,[3],> 60 µM (not active)
same,EC50,[4],1.72 µM (active)
CCOc1cc(/C=C(\C#N)C(=O)Nc2cccc(C(=O)O)c2)ccc1OCc1ccccc1Cl,CC50,[5],29.9 µM (active)
OC[C@H]1O[C@H](n2cnc3c(NC4CCCC4)nc(Cl)nc32)[C@@H](O)[C@@H]1O,AC50,Cytochrome P450 1A2,39.8 µM (inconclusive)
COc1ccccc1N1CCN(C(CNC(=O)Oc2ccccc2)c2cccnc2)CC1 (centres undefined),EC50,[3],> 60 µM (not active)
same,EC50,[4],5.42 µM (active)
Cc1ccc(Nc2nnc(-c3ccc(N4CCOCC4)c([N+](=O)[O-])c3)c3ccccc23)cc1,CC50,[5],10.8 µM (active)
O=C(c1csnn1)N1CCC[C@@]2(CCN(c3ncccn3)C2)C1,AC50,Cytochrome P450 1A2,12.6 µM (inconclusive)
N[C@](CC1c2ccccc2Oc2ccccc21)(C(=O)O)[C@@H]1C[C@@H]1C(=O)O,AC50,Cytochrome P450 1A2,31.6 µM (inconclusive)
CCOc1ccccc1Nc1cc(C)nc2ccc(C)cc12,CC50,[5],26.1 µM (active)
O=c1n(Cc2ccccc2F)c2ccccc2n1Cc1ccccc1F,EC50,[6],> 120 µM (not active)
same,EC50,[7],> 120 µM (not active)
same,EC50,[8],22 µM (active)
COc1ccc(CN2CCN(Cc3cc4ccccc4o3)CC2CCO)cc1C (centres undefined),EC50,[3],> 60 µM (not active)
same,EC50,[4],0.306 µM (active)
Cc1cccc(N(CC(=O)N2CCOCC2)S(C)(=O)=O)c1,AC50,Cytochrome P450 2C19,inconclusive
O=C(O)CCC(=O)Nc1ccc2ccccc2c1,AC50,Cytochrome P450 1A2,0.0631 µM (inconclusive)
O=C(/C=C/c1ccccc1)Nc1ccc2c(c1)OCCO2,EC50,[6],10.4 µM (inconclusive)
same,EC50,[7],9.98 µM (inconclusive)
same,EC50,[8],10.7 µM (inconclusive)
Cc1c(C(=O)NN2CCCCC2)nn(-c2ccc(Cl)cc2Cl)c1-c1ccc(I)cc1,EC50,[6],> 120 µM (not active)
same,EC50,[7],12.4 µM (active)
same,EC50,[8],11.3 µM (active)
O=c1c2ccccc2nc(COc2ccccc2)n1/N=C/c1c[nH]nc1-c1ccccc1,EC50,[1],24.5 µM (active)
same,EC50,[2],19.6 µM (active)
O=C(N/N=C\c1cn(-c2ccccc2)nc1-c1ccccc1)c1ccc2c(c1)OCO2,AC50,Cytochrome P450 1A2,3.55 µM (inconclusive)
CCCSc1nnc(CSc2nc3nc(C)cc(C)n3n2)o1,AC50,Cytochrome P450 2C19; read-out: AC50,15.8 µM (inconclusive)
Cc1ccc(C)c(OCCCC(C)(C)C(=O)O)c1 [GEMFIBROZIL],AC50,Cytochrome P450 1A2,12.6 µM (inconclusive)
